# According to patent publication US20070065524A1, “Pharmaceutical composition containing guaiacol derivatives and syringol derivatives extracted from natural plant vinegar” (priority 2003, published 2007):
# Test: DPPH free radical scavenging ability
# Assay type: biochemical
# Description: For example, a method using DPPH(1,1-diphenyl-2-picrylhydrazin) can be used.
# DPPH scavenging ability, as described later, was evaluated by using each fraction.
# 4 ml of samples with 0.1, 0.05, 0.005, 0.001, 0.0005 and 0.0001 mg/ml diluted with methanol and 1 ml of 0.1 mM DPPH methanol solution were put into test tubes and mixed well, and left in a dark place for 30 minutes. Then absorbance of the mixture at 520 nm was read and compared with that of the BHT standard solution. The reducing power of samples can be indicated as scavenging activity (SC50) and SC50 is the concentration of samples that makes the concentration of DPPH reduce to 50%.
compound,measurement,setting,value
"Cc1cc(C(C)(C)C)c(O)c(C(C)(C)C)c1 [BHT, butylated hydroxy toluene]",Free radical removal ability,Conc. 10 ug/ml,23.30 ± 1.94%
same,Free radical removal ability,Conc. 50 ug/ml,68.41 ± 1.55%
same,Free radical removal ability,Conc. 100 ug/ml,87.73 ± 0.64%
same,Free radical removal ability,Conc. 500 ug/ml,96.03 ± 0.12%
